Read-outs that look alike come from different tables or passages of the source.
Assays:
[1] = molecular target: PDK1 (Homo sapiens (Human), UniProt O15530); test: PDK1 kinase assay (coupled PDK1/AKT/FAM-crosstide assay, IMAP fluorescence polarization); format: biochemical
Protocol: A PDK1 kinase assay was performed as follows. PDK1 (amino acids 51-359) and AKT2 (amino acids 140-467 fused to PIFtide, amino acids […]) were expressed as N-terminally tagged GST fusion proteins in insect cells and purified to homogeneity. Enzyme activity was determined in a coupled PDK1/AKT/FAM-crosstide assay and phosphorylation of FAM-crosstide was determined by standard IMAP protocol (Molecular Devices). For inhibition studies, compounds were titrated 4-fold in DMSO and diluted 40-fold into assay buffer (10 mM Tris HCl pH7.2; 10 mM MgCl2; 0.01% Triton X-100; 1 mM DTT) containing PDK1, AKT2, and FAM-crosstide (final concentrations: 0.75 nM PDK1, 10 nM unphosphorylated AKT2, and 100 nM crosstide substrate). The kinase reaction was initiated by adding ATP to a final concentration of 40 μM of PDK1 and incubated at 25° C. for 30 min. To detect assay product, the kinase reaction was combined with Progressive Binding Solution (1:600 Progressive Binding Reagent, 50% Buffer A, 50% Buffer B, Molecular Devices) in a 1:3 ratio. The mixture was incubated for 2 hours at 25° C. and the plate was scanned on an Analyst AD with excitation at 485 nm and emission at 530 nm. The fluorescence polarization value “P” is defined by the equation below. The value “mP” is generated by multiplying the P value for each reaction well by a factor of 1000. The value “ΔmP” for each well is the mP value for that well minus the mP value for the average negative control. P=(Fpar−Fperp)/(Fpar+Fperp) Eq.:
Where “par” is fluorescence intensity parallel to the excitation plane; and “perp” is fluorescence intensity perpendicular to the excitation plane. ΔmP values were plotted as a function of compound concentration and the data were analyzed with a 4-parameter fit using GraphPad Prism software.

[2] = tested on: phospho-akt (Thr308) in PC-3 cells; test: Inhibition of phospho-akt (Thr308) in PC-3 cells, MSD phospho-akt 308 ELISA kit; format: cell-based; conditions: 2 hours, no serum, read-out: EC50
Protocol: PC-3 cells were harvested by trypsin and counted. Cells were plated in coated 96-well flat bottom plates (plate 15,000 cells/well in 100 ul growth media (10% FBS, 1× pen-strep) an place in an incubator overnight.
Subject inhibitors were stocked at 50 mM, then diluted to 30 mM (4.8 μl cpd plus […] DMSO) in 100% DMSO. Three-fold dilutions were performed from 30 mM stock. (4 μl into 8 ul 100% DMSO). Aliquots of 1.0 μl of inhibitor solution were transferred into SF Medium (using deep well block).
Control wells were prepared as follows. For DMSO high controls, 1.0 μl of 100% DMSO was added into 1.0 ml SF. For low controls for PC-3 cells, 5 μM of Wortmannin (10 μl of 1 mM Wortmannin stock was added into 2 ml SF Medium. The supernatant media was removed and the plate was blotted. 100 μl of controls/media or compound/media were added to cells and placed in incubator for 2 hours. The supernatant media was removed and the plate was blotted. 55 μl of the MSD complete lysis buffer was added (10 mls Tris Lysis buffer, 200 ul protease inhibitor, 100 ul phosphatase inhibitor 1, and 100 ul phosphatase inhibitor II). The plate was placed on a plate shaker for 60 mins at 4 deg.
MSD plates were blocked for 1 hour by adding 150 μl of Blocking Solution (3% BSA) to each well. The MSD plates were washed 4× with TBST, and 50 μl lysates were transferred to MSD plate and place on plate shaker shake at 4 degrees O/N, light shaking (speed 3.5). The plate was washed 4× with TBST.
25 μl of Ab detection solution was added to each well. The plate was sealed and incubated 1 hr RT, light shaking (speed 3.5). The plate was washed 4 times with TBST. 150 μl of Read Buffer was added (5 mls 4×MSD Read Buffer+15 mls water). Finally the plate was read immediately on the MSD plate reader.

[3] = inhibition of phospo-PDK1 in vitro
[4] = Homo sapiens, inhibition of P308 Akt in PC-3 cells, MSD
[5] = inhibition of P308 Akt in PC-3 cells using MSD

Chain of PDK1 (O15530 51-359): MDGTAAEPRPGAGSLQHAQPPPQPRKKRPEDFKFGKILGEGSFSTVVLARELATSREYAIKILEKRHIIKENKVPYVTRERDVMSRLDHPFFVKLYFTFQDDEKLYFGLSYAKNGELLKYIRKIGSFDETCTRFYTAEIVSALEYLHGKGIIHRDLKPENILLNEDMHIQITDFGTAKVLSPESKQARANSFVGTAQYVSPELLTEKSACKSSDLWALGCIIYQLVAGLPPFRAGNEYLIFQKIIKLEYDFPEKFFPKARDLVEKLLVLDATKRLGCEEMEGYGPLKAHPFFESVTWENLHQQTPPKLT

Molecule | IC50 [1, 3] | EC50 [2, 4] | further results
C[C@H](NC(=O)c1cc(F)cnc1NCc1ccc(-c2cc3c(N)ncnc3cn2)s1)c1ccc(F)cc1 | 100 to 1000 nM | 1000 to 10000 nM | –
C[C@H](NC(=O)c1cc(S(C)(=O)=O)cnc1NCc1ccc(-c2ccc3ncnc(N)c3c2)s1)c1ccc(F)c(F)c1 | 100 to 1000 nM | < 1000 nM | –
2-(4-(3-amino-1H-pyrazolo [3,4-b]pyridin-5-yl) benzylamino)-N-(thiazol- 4-yl)-5-(trifluoromethyl) nicotinamide [Example 287] | – | – | IC50 ([1]; inhibition of PDK1 in vitro): 100 to 1000 nM; EC50 [2, 5]: > 10000 nM
C[C@H](NC(=O)c1nc(C#N)cnc1NCc1ccc(-c2cnc(N)c(CCC3CCNC3)n2)cc1)c1ccc(F)c(F)c1 (single isomer, unassigned) [Example 79] | – | – | IC50 ([1]; inhibition of PDK1 in vitro): < 100 nM; EC50 ([2]; Homo sapiens, PC-3, 2 h, inhibition of P308 Akt in PC-3 cells using MSD): < 1000 nM
C[C@H](NC(=O)c1nc(C#N)cnc1NCc1ccc(-c2cnc(N)c(CCC3CCNC3)n2)cc1)c1ccc(F)c(F)c1 (single isomer, unassigned) [Example 80] | – | – | IC50 ([1]; inhibition of PDK1 in vitro): < 100 nM; EC50 [2, 5]: 1000 to 10000 nM
CC(Nc1ncc(C#N)nc1C(=O)N[C@@H](C)c1ccc(F)c(F)c1)c1ccc(-c2cnc3[nH]nc(N)c3c2)cc1 (stereo in doubt) [Example 350, 3-((R)-1-(4-(3-amino-1H-pyrazolo[3,4-b]pyridin-5-yl)phenyl)ethylamino)-6-cyano-N-((S)-1-(3,4-difluorophenyl)ethyl) pyrazine-2-carboxamide] | – | – | IC50 ([1]; inhibition of PDK1 in vitro): > 5000 nM; EC50 ([2]; Homo sapiens, inhibition of P308 Akt in PC-3 cells using MSD): > 10000 nM
CCOC(=O)c1cccnc1NCc1cc(OC(C)C)cc(-c2cn(S(=O)(=O)c3ccccc3)c3ncc(C(=O)NC4CC4)cc23)c1 [4.1.17] | > 5000 nM | – | EC50 ([2]; inhibition of P308 Akt in PC-3 cells, MSD): > 10000 nM
Nc1ncnc2ccc(-c3ccc(CNc4ncc(F)cc4C(=O)NCc4ccc(F)c(F)c4)s3)cc12 [Ex. 7.3.1] | < 100 nM | < 1000 nM | –
O=C(NC1CC1)c1cccnc1NCc1cccc(-c2c[nH]c3ncccc23)c1 [Example 1.12, N-cyclopropyl-2-{[3-(1H-pyrrolo [2,3-b]pyridin-3-yl)benzyl]amino} pyridine-3-carboxamide] | > 5000 nM | – | –
C[C@H](NC(=O)c1cccnc1NCc1ccc(-c2ccc3ncncc3c2)s1)c1ccc(F)cc1 [Example 2.11, (S)-N-(1-(4-fluorophenyl)ethyl)-2-(((5-(quinazolin-6-yl)thiophen-2-yl)methyl)amino)nicotinamide] | 100 to 1000 nM | – | –

Continued, in another order:

IC50 [1, 3] | EC50 [2, 4] | Molecule | further results
> 5000 nM | 1000 to 10000 nM | Nc1ncnc2ccc(-c3ccccc3CNc3ncccc3C(=O)NCc3ccc(F)c(F)c3)cc12 [Ex. 6.5, 2-{[2-(4-aminoquinazolin-6-yl)benzyl]amino}-N-(3,4-difluorobenzyl) pyridine-3-carboxamide] | –
< 100 nM | > 10000 nM | Nc1ncnc2ccc(-c3ncc(CNc4ncccc4C(=O)NCc4ccc(F)c(F)c4)s3)cc12 [Ex. 6.6, 2-({[2-(4-aminoquinazolin-6-yl)-1,3-thiazol-5-yl]methyl}amino)-N-(3,4-difluoro-benzyl) pyridine-3-carboxamide] | –
< 100 nM | > 10000 nM | Nc1ncnc2ccc(-c3csc(CNc4ncccc4C(=O)NCc4ccc(F)c(F)c4)n3)cc12 [Ex. 6.7, 2-({[4-(4-aminoquinazolin-6-yl)-1,3-thiazol-2-yl]methyl}amino)-N-(3,4-difluoro-benzyl) pyridine-3-carboxamide] | –
< 100 nM | > 10000 nM | Nc1ncnc2ccc(-c3nc(CNc4ncccc4C(=O)NCc4ccc(F)c(F)c4)cs3)cc12 [Ex. 6.8, 2-({[2-(4-aminoquinazolin-6-yl)-1,3-thiazol-4-yl]methyl}amino)-N-(3,4-difluoro-benzyl) pyridine-3-carboxamide] | –
< 100 nM | > 10000 nM | O=C(NCc1ccc(F)c(F)c1)c1cccnc1NCc1csc(-c2ccc3ncnc(NC4CC4)c3c2)n1 [Ex. 6.9, 2-[({2-[4-(cyclopropyl-amino)quinazolin-6-yl)-1,3-thiazol-4-yl}methyl)amino]-N-(3,4-difluorobenzyl) pyridine-3-carboxamide] | –
100 to 1000 nM | 1000 to 10000 nM | O=C(NCc1ccc(F)c(F)c1)c1cccnc1NCc1cnc(-c2c[nH]c3ncccc23)s1 [Ex. 6.10, N-(3,4-difluorobenzyl)-2-({[2-(1H-pyrrolo[2,3-b]pyridin-3-yl)-1,3-thiazol-5-yl]methyl}amino) pyridine-3-carboxamide] | –
100 to 1000 nM | 1000 to 10000 nM | O=C(NCc1ccc(F)c(F)c1)c1cccnc1NCc1nc(-c2c[nH]c3ncccc23)cs1 [Ex. 6.11, N-(3,4-difluorobenzyl)-2-({[4-(1H-pyrrolo[2,3-b]pyridin-3-yl)-1,3-thiazol-2-yl]methyl}amino) pyridine-3-carboxamide] | –
< 100 nM | < 1000 nM | O=C(NCc1ccc(F)c(F)c1)c1cccnc1NCc1csc(-c2c[nH]c3ncccc23)n1 [Ex. 6.12, N-(3,4-difluorobenzyl)-2-({[2-(1H-pyrrolo[2,3-b]pyridin-3-yl)-1,3-thiazol-4-yl]-methyl}amino) pyridine-3-carboxamide] | –
100 to 1000 nM | > 10000 nM | O=C(NCc1ccc(F)c(F)c1)c1cccnc1NCc1csc(-c2c[nH]c3ncncc23)n1 [Ex. 6.13, N-(3,4-difluorobenzyl)-2-({[2-(7H-pyrrolo[2,3-d]pyrimidin-5-yl)-1,3-thiazol-4-yl]-methyl}amino) pyridine-3-carboxamide] | –
< 100 nM | 1000 to 10000 nM | Nc1ncnc2ccc(-c3csc(CNc4ncccc4C(=O)NCc4ccc(F)c(F)c4)c3)cc12 [Ex. 6.14, 2-({[4-(4-aminoquinazolin-6-yl)thiophen-2-yl]methyl}amino)-N-(3,4-difluoro-benzyl) pyridine-3-carboxamide] | –
100 to 1000 nM | > 10000 nM | O=C(NCc1ccc(F)c(F)c1)c1cccnc1NCc1cc(-c2c[nH]c3ncccc23)cs1 [Ex. 6.15, N-(3,4-difluorobenzyl)-2-({[4-(1H-pyrrolo[2,3-b]pyridin-3-yl)thiophen-2-yl]-methyl}amino) pyridine-3-carboxamide] | –
100 to 1000 nM | 1000 to 10000 nM | Nc1ncnc2ccc(-c3cnc(CNc4ncccc4C(=O)NCc4ccc(F)c(F)c4)s3)cc12 [Ex. 7.1] | –
100 to 1000 nM | – | CC(Nc1ncccc1C(=O)NCc1ccc(F)c(F)c1)c1ccc(-c2ccc3ncnc(N)c3c2)s1 (stereo not shown) [Ex. 7.2] | EC50 ([2]; Homo sapiens, PC-3, 2 h, inhibition of P308 Akt in PC-3 cells, MSD): 1000 to 10000 nM
100 to 1000 nM | > 10000 nM | COc1ccnc(NCc2ccc(-c3ccc4ncnc(N)c4c3)s2)c1C(=O)NCc1ccc(F)c(F)c1 [Ex. 7.4, 2-({[5-(4-aminoquinazolin-6-yl)thiophen-2-yl]methyl}amino)-N-(3,4-difluorobenzyl)-4-methoxypyridine-3-carboxamide] | –
100 to 1000 nM | > 10000 nM | CCOc1ccnc(NCc2ccc(-c3ccc4ncnc(N)c4c3)s2)c1C(=O)NCc1ccc(F)c(F)c1 [Ex. 7.5, 2-({[5-(4-aminoquinazolin-6-yl)thiophen-2-yl]methyl}amino)-N-(3,4-difluorobenzyl)-4-ethoxypyridine-3-carboxamide] | –
> 5000 nM | – | Nc1ncnc2ccc(-c3ccc(CNc4ncccc4S(=O)(=O)NCc4ccc(F)c(F)c4)s3)cc12 [Example 20.2, 2-(((5-(4-aminoquinazolin-6-yl)thiophen-2-yl)methyl)amino)-N-(3,4-difluorobenzyl)pyridine-3-sulfonamide] | –

From patent publication US10030016B2 (Sunesis Pharmaceuticals, Inc., priority 2009, dated 2018)
